Reference: PubChem BioAssay AID2060503 (Molecular Pharmacology Branch, DTP, NCI, 2025)

test system: 817829-284-R-J1-PDC complex spheroids, viability; experiment: Anticancer human tumor 817829-284-R-J1-PDC patient-derived colon adenocarcinoma cell line growth inhibition [GQUAD]; conditions: second compound 10 µM; first compound 0.0316 µM; active compounds read low
Outline: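 Tumor cells were grown as complex spheroids with HUVEC endothelial cells and mesenchymal stem cells as stroma. G-quadruplex stabilizers were combined with targeted agents over half-log dilutions from near the clinical Cmax, or from 10 microM.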
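Note: spheroids exposed to agents for 7 days before readout; percent viability relative to DMSO vehicle control taken as 100%.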

SMILES | viability, T/C [%]
CC(C)(O)C1CCC(Nc2ccc3ncc(-c4cccc(C(F)(F)F)c4)n3n2)CC1 (configuration not stated) + Cc1[nH]c2ccc(F)cc2c1-c1nc2c3cccnc3c3ncccc3c2[nH]1 | 2.48
Cc1[nH]c2ccccc2c1CCNCc1ccc(/C=C/C(=O)NO)cc1 + Cc1[nH]c2ccc(F)cc2c1-c1nc2c3cccnc3c3ncccc3c2[nH]1 | 28.5
Nc1ccn(C2OC(CO)C(O)C2(F)F)c(=O)n1 (configuration not stated) + Cc1[nH]c2ccc(F)cc2c1-c1nc2c3cccnc3c3ncccc3c2[nH]1 | 7.76
O=C(NO)c1cnc(N2CCN(S(=O)(=O)c3ccc4ccccc4c3)CC2)nc1 + Cc1[nH]c2ccc(F)cc2c1-c1nc2c3cccnc3c3ncccc3c2[nH]1 | 5.27
O=c1[nH]cc(F)c(=O)[nH]1 + Cc1[nH]c2ccc(F)cc2c1-c1nc2c3cccnc3c3ncccc3c2[nH]1 | 31.7

same assay, conditions: second compound 10 µM; first compound 0.0999 µM; active compounds read low

SMILES | viability, T/C [%]
Cc1[nH]c2ccccc2c1CCNCc1ccc(/C=C/C(=O)NO)cc1 + Cc1[nH]c2ccc(F)cc2c1-c1nc2c3cccnc3c3ncccc3c2[nH]1 | 2.12

same assay, conditions: second compound 10 µM; first compound 0.1 µM; active compounds read low

SMILES | viability, T/C [%]
C#Cc1c(F)ccc2cc(O)cc(-c3ncc4c(N5CC6CCC(C5)N6)nc(OCC56CCCN5CC(F)C6)nc4c3F)c12 (configuration not stated) + Cc1[nH]c2ccc(F)cc2c1-c1nc2c3cccnc3c3ncccc3c2[nH]1 | 12.8
C=CCn1c(=O)c2cnc(Nc3ccc(N4CCN(C)CC4)cc3)nc2n1-c1cccc(C(C)(C)O)n1 + Cc1[nH]c2ccc(F)cc2c1-c1nc2c3cccnc3c3ncccc3c2[nH]1 | 14.8
CC(C)(O)C1CCC(Nc2ccc3ncc(-c4cccc(C(F)(F)F)c4)n3n2)CC1 (configuration not stated) + Cc1[nH]c2ccc(F)cc2c1-c1nc2c3cccnc3c3ncccc3c2[nH]1 | 2.78
Nc1ccn(C2OC(CO)C(O)C2(F)F)c(=O)n1 (configuration not stated) + Cc1[nH]c2ccc(F)cc2c1-c1nc2c3cccnc3c3ncccc3c2[nH]1 | 3.83
O=C(NO)c1cnc(N2CCN(S(=O)(=O)c3ccc4ccccc4c3)CC2)nc1 + Cc1[nH]c2ccc(F)cc2c1-c1nc2c3cccnc3c3ncccc3c2[nH]1 | 7.46
O=c1[nH]cc(F)c(=O)[nH]1 + Cc1[nH]c2ccc(F)cc2c1-c1nc2c3cccnc3c3ncccc3c2[nH]1 | 73.2

same assay, conditions: second compound 10 µM; first compound 0.316 µM; active compounds read low

SMILES | viability, T/C [%]
C#Cc1c(F)ccc2cc(O)cc(-c3ncc4c(N5CC6CCC(C5)N6)nc(OCC56CCCN5CC(F)C6)nc4c3F)c12 (configuration not stated) + Cc1[nH]c2ccc(F)cc2c1-c1nc2c3cccnc3c3ncccc3c2[nH]1 | 3.04
C=CCn1c(=O)c2cnc(Nc3ccc(N4CCN(C)CC4)cc3)nc2n1-c1cccc(C(C)(C)O)n1 + Cc1[nH]c2ccc(F)cc2c1-c1nc2c3cccnc3c3ncccc3c2[nH]1 | 6.57
CC(C)(O)C1CCC(Nc2ccc3ncc(-c4cccc(C(F)(F)F)c4)n3n2)CC1 (configuration not stated) + Cc1[nH]c2ccc(F)cc2c1-c1nc2c3cccnc3c3ncccc3c2[nH]1 | 2.18
Cc1[nH]c2ccccc2c1CCNCc1ccc(/C=C/C(=O)NO)cc1 + Cc1[nH]c2ccc(F)cc2c1-c1nc2c3cccnc3c3ncccc3c2[nH]1 | 0.24
Nc1ccn(C2OC(CO)C(O)C2(F)F)c(=O)n1 (configuration not stated) + Cc1[nH]c2ccc(F)cc2c1-c1nc2c3cccnc3c3ncccc3c2[nH]1 | 2.59
O=C(NO)c1cnc(N2CCN(S(=O)(=O)c3ccc4ccccc4c3)CC2)nc1 + Cc1[nH]c2ccc(F)cc2c1-c1nc2c3cccnc3c3ncccc3c2[nH]1 | 0.18
O=c1[nH]cc(F)c(=O)[nH]1 + Cc1[nH]c2ccc(F)cc2c1-c1nc2c3cccnc3c3ncccc3c2[nH]1 | 48.5

same assay, conditions: second compound 10 µM; first compound 1 µM; active compounds read low

SMILES | viability, T/C [%]
C#Cc1c(F)ccc2cc(O)cc(-c3ncc4c(N5CC6CCC(C5)N6)nc(OCC56CCCN5CC(F)C6)nc4c3F)c12 (configuration not stated) + Cc1[nH]c2ccc(F)cc2c1-c1nc2c3cccnc3c3ncccc3c2[nH]1 | 2.02
C=CCn1c(=O)c2cnc(Nc3ccc(N4CCN(C)CC4)cc3)nc2n1-c1cccc(C(C)(C)O)n1 + Cc1[nH]c2ccc(F)cc2c1-c1nc2c3cccnc3c3ncccc3c2[nH]1 | 4.68
CC(C)(O)C1CCC(Nc2ccc3ncc(-c4cccc(C(F)(F)F)c4)n3n2)CC1 (configuration not stated) + Cc1[nH]c2ccc(F)cc2c1-c1nc2c3cccnc3c3ncccc3c2[nH]1 | 1.41
Nc1ccn(C2OC(CO)C(O)C2(F)F)c(=O)n1 (configuration not stated) + Cc1[nH]c2ccc(F)cc2c1-c1nc2c3cccnc3c3ncccc3c2[nH]1 | 2.55
O=C(NO)c1cnc(N2CCN(S(=O)(=O)c3ccc4ccccc4c3)CC2)nc1 + Cc1[nH]c2ccc(F)cc2c1-c1nc2c3cccnc3c3ncccc3c2[nH]1 | 0.12
O=c1[nH]cc(F)c(=O)[nH]1 + Cc1[nH]c2ccc(F)cc2c1-c1nc2c3cccnc3c3ncccc3c2[nH]1 | 15.9

same assay, conditions: second compound 10 µM; first compound 3.16 µM; active compounds read low

SMILES | viability, T/C [%]
C#Cc1c(F)ccc2cc(O)cc(-c3ncc4c(N5CC6CCC(C5)N6)nc(OCC56CCCN5CC(F)C6)nc4c3F)c12 (configuration not stated) + Cc1[nH]c2ccc(F)cc2c1-c1nc2c3cccnc3c3ncccc3c2[nH]1 | 2.19
C=CCn1c(=O)c2cnc(Nc3ccc(N4CCN(C)CC4)cc3)nc2n1-c1cccc(C(C)(C)O)n1 + Cc1[nH]c2ccc(F)cc2c1-c1nc2c3cccnc3c3ncccc3c2[nH]1 | 5.07
CC(C)(O)C1CCC(Nc2ccc3ncc(-c4cccc(C(F)(F)F)c4)n3n2)CC1 (configuration not stated) + Cc1[nH]c2ccc(F)cc2c1-c1nc2c3cccnc3c3ncccc3c2[nH]1 | 0.83
Nc1ccn(C2OC(CO)C(O)C2(F)F)c(=O)n1 (configuration not stated) + Cc1[nH]c2ccc(F)cc2c1-c1nc2c3cccnc3c3ncccc3c2[nH]1 | 2.74
O=C(NO)c1cnc(N2CCN(S(=O)(=O)c3ccc4ccccc4c3)CC2)nc1 + Cc1[nH]c2ccc(F)cc2c1-c1nc2c3cccnc3c3ncccc3c2[nH]1 | 0.17
O=c1[nH]cc(F)c(=O)[nH]1 + Cc1[nH]c2ccc(F)cc2c1-c1nc2c3cccnc3c3ncccc3c2[nH]1 | 7.19

same assay, conditions: second compound 10 µM; first compound 10 µM; active compounds read low

SMILES | viability, T/C [%]
C#Cc1c(F)ccc2cc(O)cc(-c3ncc4c(N5CC6CCC(C5)N6)nc(OCC56CCCN5CC(F)C6)nc4c3F)c12 (configuration not stated) + Cc1[nH]c2ccc(F)cc2c1-c1nc2c3cccnc3c3ncccc3c2[nH]1 | 0.17
C=CCn1c(=O)c2cnc(Nc3ccc(N4CCN(C)CC4)cc3)nc2n1-c1cccc(C(C)(C)O)n1 + Cc1[nH]c2ccc(F)cc2c1-c1nc2c3cccnc3c3ncccc3c2[nH]1 | 4.08
CC(C)(O)C1CCC(Nc2ccc3ncc(-c4cccc(C(F)(F)F)c4)n3n2)CC1 (configuration not stated) + Cc1[nH]c2ccc(F)cc2c1-c1nc2c3cccnc3c3ncccc3c2[nH]1 | 1.5
Nc1ccn(C2OC(CO)C(O)C2(F)F)c(=O)n1 (configuration not stated) + Cc1[nH]c2ccc(F)cc2c1-c1nc2c3cccnc3c3ncccc3c2[nH]1 | 2.11
O=C(NO)c1cnc(N2CCN(S(=O)(=O)c3ccc4ccccc4c3)CC2)nc1 + Cc1[nH]c2ccc(F)cc2c1-c1nc2c3cccnc3c3ncccc3c2[nH]1 | 0.15
O=c1[nH]cc(F)c(=O)[nH]1 + Cc1[nH]c2ccc(F)cc2c1-c1nc2c3cccnc3c3ncccc3c2[nH]1 | 8.78
